In one assay the target is human TLR7 (Homo sapiens (Human), UniProt Q9NYK1). In words: TLR7 inhibition reporter assay (HEK-Blue SEAP). The format is cell-based. The conditions noted are these: HEK-Blue cells overexpressing human TLR7, gardiquimod 7.5 μM stimulation. In general terms: A reporter such as luciferase makes a cellular process visible.
Another assay deals with human TLR8 (Homo sapiens (Human), UniProt Q9NR97). In words: TLR8 inhibition reporter assay (HEK-Blue SEAP).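 Also: SEAP driven by IFN-β minimal promoter with five NF-κB and AP-1 sites, compounds tested 0.05 nM to 50 µM, 22 h incubation, inhibition relative to agonist plus DMSO wells.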
human TLR8, sequence (Q9NR97 27-1041): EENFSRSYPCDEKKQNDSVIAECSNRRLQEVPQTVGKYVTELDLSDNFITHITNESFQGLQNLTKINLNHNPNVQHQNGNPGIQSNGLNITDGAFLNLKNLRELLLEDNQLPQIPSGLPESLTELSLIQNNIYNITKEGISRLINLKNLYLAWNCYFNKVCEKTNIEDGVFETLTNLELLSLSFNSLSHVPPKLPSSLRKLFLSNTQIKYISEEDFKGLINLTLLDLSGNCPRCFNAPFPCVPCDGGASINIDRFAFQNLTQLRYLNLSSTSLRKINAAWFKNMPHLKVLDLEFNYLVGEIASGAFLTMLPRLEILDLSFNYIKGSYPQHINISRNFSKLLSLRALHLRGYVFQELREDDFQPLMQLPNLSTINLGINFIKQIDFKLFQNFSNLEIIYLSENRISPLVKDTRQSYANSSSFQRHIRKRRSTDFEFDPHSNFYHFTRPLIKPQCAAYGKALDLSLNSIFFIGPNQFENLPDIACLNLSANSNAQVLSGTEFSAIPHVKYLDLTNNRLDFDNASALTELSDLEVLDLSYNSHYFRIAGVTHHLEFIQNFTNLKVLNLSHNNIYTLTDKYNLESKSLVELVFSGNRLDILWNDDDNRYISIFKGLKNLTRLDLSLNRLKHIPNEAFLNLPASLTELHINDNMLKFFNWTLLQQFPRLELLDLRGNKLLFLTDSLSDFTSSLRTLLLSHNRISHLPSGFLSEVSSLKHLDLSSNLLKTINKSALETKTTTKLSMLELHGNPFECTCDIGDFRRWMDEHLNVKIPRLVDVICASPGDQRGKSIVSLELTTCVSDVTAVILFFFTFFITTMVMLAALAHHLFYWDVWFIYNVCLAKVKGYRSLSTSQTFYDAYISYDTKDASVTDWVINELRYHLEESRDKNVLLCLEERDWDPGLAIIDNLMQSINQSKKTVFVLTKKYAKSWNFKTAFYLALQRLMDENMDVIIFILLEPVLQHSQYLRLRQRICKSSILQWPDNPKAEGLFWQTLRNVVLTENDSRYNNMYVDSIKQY
Another assay addresses human TLR9 (Homo sapiens (Human), UniProt Q9NR96). In words: TLR9 inhibition reporter assay (HEK-Blue SEAP).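 Also: SEAP driven by IFN-β minimal promoter carrying five NF-κB and AP-1 sites, 22 h at 37 °C, compounds 0.05 nM–50 µM, inhibition scaled between agonist-plus-DMSO and reference-inhibitor wells.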
[1] abbreviates: read-out: TLR8 IC50; HEK-Blue cells overexpressing human TLR8, R848 15.9 μM stimulation, SEAP reporter.
Where [2] appears, read: read-out: TLR9 IC50; HEK-Blue cells overexpressing human TLR9, ODN2006 5 nM stimulation, SEAP reporter.
Where [3] appears, read: read-out: TLR8 IC50; HEK-Blue cells overexpressing human TLR8; R848 15.9 μM stimulation; SEAP reporter.
Setting [4] is: read-out: TLR9 IC50; HEK-Blue cells overexpressing human TLR9; ODN2006 5 nM stimulation; SEAP reporter.

Structures are written as SMILES. Where two headings read alike, the source gives them in different places. Bounds are passed on as bounds.

human TLR7, sequence (Q9NYK1 27-1049): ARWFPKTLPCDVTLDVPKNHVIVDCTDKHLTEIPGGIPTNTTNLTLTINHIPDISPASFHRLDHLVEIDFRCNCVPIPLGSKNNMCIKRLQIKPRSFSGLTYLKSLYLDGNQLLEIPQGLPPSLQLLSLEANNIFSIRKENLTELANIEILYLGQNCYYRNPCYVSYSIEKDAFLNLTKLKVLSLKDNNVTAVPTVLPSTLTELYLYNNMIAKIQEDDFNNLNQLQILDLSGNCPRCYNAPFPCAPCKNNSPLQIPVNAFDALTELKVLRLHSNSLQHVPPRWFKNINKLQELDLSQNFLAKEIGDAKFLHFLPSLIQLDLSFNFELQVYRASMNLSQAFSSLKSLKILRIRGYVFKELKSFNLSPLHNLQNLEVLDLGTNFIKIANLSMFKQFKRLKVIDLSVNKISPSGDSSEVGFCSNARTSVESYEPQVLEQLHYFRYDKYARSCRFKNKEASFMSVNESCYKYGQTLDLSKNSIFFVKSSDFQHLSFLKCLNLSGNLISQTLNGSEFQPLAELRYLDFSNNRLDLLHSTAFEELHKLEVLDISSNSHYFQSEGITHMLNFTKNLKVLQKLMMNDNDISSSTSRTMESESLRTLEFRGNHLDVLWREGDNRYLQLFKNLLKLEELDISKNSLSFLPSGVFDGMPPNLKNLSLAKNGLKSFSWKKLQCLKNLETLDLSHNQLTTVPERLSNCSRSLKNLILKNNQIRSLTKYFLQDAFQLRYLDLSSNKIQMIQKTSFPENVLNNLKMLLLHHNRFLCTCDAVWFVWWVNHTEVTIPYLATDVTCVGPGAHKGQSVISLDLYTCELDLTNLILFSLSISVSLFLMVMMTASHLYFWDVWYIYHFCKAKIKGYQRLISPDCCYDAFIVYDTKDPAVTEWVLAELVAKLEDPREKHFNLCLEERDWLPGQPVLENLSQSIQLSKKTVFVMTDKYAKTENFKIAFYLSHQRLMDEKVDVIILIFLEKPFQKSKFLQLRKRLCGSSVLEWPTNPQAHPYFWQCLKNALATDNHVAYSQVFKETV
human TLR9, sequence (Q9NR96 26-1032): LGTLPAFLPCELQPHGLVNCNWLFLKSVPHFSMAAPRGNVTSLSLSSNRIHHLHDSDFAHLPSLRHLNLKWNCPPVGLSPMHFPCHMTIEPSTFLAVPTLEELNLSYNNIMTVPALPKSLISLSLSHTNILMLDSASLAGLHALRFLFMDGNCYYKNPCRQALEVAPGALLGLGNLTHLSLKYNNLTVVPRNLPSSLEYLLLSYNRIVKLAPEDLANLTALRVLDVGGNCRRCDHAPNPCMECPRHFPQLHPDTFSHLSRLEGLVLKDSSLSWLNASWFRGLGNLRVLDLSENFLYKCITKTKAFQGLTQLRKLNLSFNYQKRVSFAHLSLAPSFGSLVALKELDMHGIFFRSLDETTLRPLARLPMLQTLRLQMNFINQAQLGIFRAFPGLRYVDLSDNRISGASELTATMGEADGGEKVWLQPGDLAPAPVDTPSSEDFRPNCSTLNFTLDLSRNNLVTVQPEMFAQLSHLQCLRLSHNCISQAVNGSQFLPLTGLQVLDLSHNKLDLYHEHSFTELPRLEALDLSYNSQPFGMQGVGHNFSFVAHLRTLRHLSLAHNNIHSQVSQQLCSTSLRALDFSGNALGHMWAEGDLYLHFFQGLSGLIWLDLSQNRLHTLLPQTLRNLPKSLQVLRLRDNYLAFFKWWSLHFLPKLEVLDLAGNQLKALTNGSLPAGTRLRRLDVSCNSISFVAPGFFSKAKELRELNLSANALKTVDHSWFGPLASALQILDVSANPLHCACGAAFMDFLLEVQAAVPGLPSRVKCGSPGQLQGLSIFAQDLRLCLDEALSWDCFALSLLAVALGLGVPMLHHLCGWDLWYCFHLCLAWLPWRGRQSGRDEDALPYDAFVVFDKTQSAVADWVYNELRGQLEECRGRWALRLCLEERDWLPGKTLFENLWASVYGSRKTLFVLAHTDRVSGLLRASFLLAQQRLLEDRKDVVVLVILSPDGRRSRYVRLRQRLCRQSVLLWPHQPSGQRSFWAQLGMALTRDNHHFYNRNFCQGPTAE
Description for human TLR8: HEK-Blue™-cells (Invivogen) overexpressing human TLR7, TLR8 or TLR9 receptors were used for screening inhibitors of these receptors using an inducible SEAP (secreted embryonic alkaline phosphatase) reporter gene under the control of the IFN-β minimal promoter fused to five NF-κB and AP-1-binding sites. Briefly, cells are seeded into Greiner 384 well plates (15000 cells per well for TLR7, 20,000 for TLR8 and 25,000 for TLR9) and then treated with test compounds in DMSO to yield a final dose response concentration range of 0.05 nM-50 μM. After a 30 minute compound pre-treatment at room temperature, the cells are then stimulated with a TLR7 ligand (gardiquimod at a final concentration of 7.5 μM), TLR8 ligand (R848 at a final concentration of 15.9 μM) or TLR9 ligand (ODN2006 at a final concentration of 5 nM) to activate NF-κB and AP-1 which induce the production of SEAP. After a 22 hour incubation at 37° C., 500 CO2, SEAP levels are determined with the addition of HEK-Blue™ Detection reagent (Invivogen), a cell culture medium that allows for detection of SEAP, according to manufacturer's specifications.

Consider `Cc1c(-c2[nH]c3cnc(N4CC5(CN(CC(C)C)C5)C4)c(F)c3c2C(C)C)cn2ncnc2c1C` [Example 402], for which the results for the IC50 against human TLR7, on human TLR8 (setting [1]) and at human TLR9 (setting [2]) were 30 nM, 4.4 nM and 5970 nM, respectively.

With `Cc1c(-c2[nH]c3cnc(C4CCC(NCC(F)F)CC4)cc3c2C(C)C)cn2ncnc2c1C` (stereo not drawn) [Example 350], the results for the half-maximal inhibitory concentration (IC50) on human TLR7, at human TLR8 (setting [1]) and on human TLR9 (setting [2]) were 1.4 nM, 4.7 nM and 1080 nM, respectively.

`COc1cc(-c2[nH]c3cnc(C4CCN(CC(N)=O)CC4)c(C)c3c2C(C)C)cn2ncnc12` [Example 11]: the IC50 against human TLR7 was found to be 1.6 nM; on human TLR8 (setting [1]) it was 8.3 nM; at human TLR9 (setting [2]), 91 nM.

Turning to `COc1cc(-c2[nH]c3cnc(C4CCC(N5CC6(COC6)C5)C4)cc3c2C(C)C)cn2ncnc12` (stereo not drawn) [Example 118], the IC50 against human TLR7 came to 8.6 nM; on human TLR8 (setting [1]), 1.4 nM; on human TLR9 (setting [2]), 294 nM.

On to `Cc1cc(-c2[nH]c3cnc(C4CCN(C5CCOCC5)CC4)c(F)c3c2C(C)C)cn2ncnc12` [Example 187], for which the IC50 stood at 2.1 nM against human TLR7, 2 nM on human TLR8 (setting [1]) and 1530 nM on human TLR9 (setting [2]).

For the compound `Cc1cc(-c2[nH]c3cnc(C4CCC(NCC(C)(C)O)CC4)c(F)c3c2C(C)C)cn2ncnc12` (stereo not drawn) [Example 164], the IC50 against human TLR7 was 6.2 nM; on human TLR8 (setting [1]) it was 4.6 nM; at human TLR9 (setting [2]), 1800 nM.

On to `COc1cc(-c2[nH]c3cnc(N4CCN(CC(=O)N(C)C)CC4)c(Cl)c3c2C(C)C)cn2ncnc12` [Example 305], for which the concentration for half-maximal inhibition (IC50) at human TLR7 is 2.5 nM; on human TLR8 (setting [1]) it was 1.4 nM; on human TLR9 (setting [2]) it was 2830 nM.

For `Cc1c(-c2[nH]c3cnc(C4CCC(NC[C@@H](F)C(C)(C)O)CC4)c(F)c3c2C(C)C)cn2ncnc2c1C` (stereo partly drawn) [Example 175], the results for the IC50 against human TLR7, at human TLR8 (setting [1]) and at human TLR9 (setting [2]) were 23 nM, 6.4 nM and 7940 nM, respectively.

For the compound `Cc1cc(-c2[nH]c3cnc(C4CCN(C(=O)CN(C)C)CC4)c(F)c3c2C(C)C)cc(C)n1` [Example 185], the IC50 on human TLR7 was 6.2 nM; on human TLR8 (setting [1]) it was 7.8 nM; at human TLR9 (setting [2]) it was 1550 nM.

`COc1cc(-c2[nH]c3cnc(C4CCC(N(C)CC(N)=O)CC4)c(F)c3c2C(C)C)cn2ncnc12` (stereo not drawn) [Example 78]: the IC50 against human TLR7 was found to be 4.3 nM; on human TLR8 (setting [1]) it was 11 nM; on human TLR9 (setting [2]), 8620 nM.

In the case of `COc1cc(-c2[nH]c3cnc(N4CCN(CC(F)(F)F)C[C@H]4C)c(F)c3c2C(C)C)cn2ncnc12` [Example 449], the IC50 against human TLR7 was 37 nM; at human TLR8 (setting [1]), 171 nM; on human TLR9 (setting [2]) it was above 50000 nM.

`Cc1cc(-c2[nH]c3cnc(C4CCN(CC(N)=O)CC4)c(F)c3c2C(C)C)cc(C)n1` [Example 152]: the results for the half-maximal inhibitory concentration (IC50) against human TLR7, at human TLR8 (setting [1]) and on human TLR9 (setting [2]) were 5 nM, 6.4 nM and 4090 nM, respectively.

As to `COc1cc(-c2[nH]c3cnc(N4CCN(C5CCN(C(C)C)CC5)C[C@H]4C)c(F)c3c2C(C)C)cn2ncnc12` [Example 451], the IC50 at human TLR7 amounted to 2.6 nM; on human TLR8 (setting [3]), 5.7 nM; on human TLR9 (setting [4]) it was 792 nM.

In the case of `Cc1c(-c2[nH]c3cnc(N4CCN(CC(N)=O)CC4)c(F)c3c2C(C)C)cn2ncnc2c1C` [Example 429], the IC50 is 9.3 nM on human TLR7, 2.3 nM on human TLR8 (setting [1]) and above 50000 nM at human TLR9 (setting [2]).

Take `Cc1c(-c2[nH]c3cnc(N4CC5(CN(C(=O)CN6CCOCC6)C5)C4)c(F)c3c2C(C)C)cn2ncnc2c1C` [Example 399, 1-(6-(2-(7,8-dimethyl-[1,2,4]triazolo[1,5-a]pyridin-6-yl)-4-fluoro-3-isopropyl-1H-pyrrolo[2,3-c]pyridin-5-yl)-2,6-diazaspiro[3.3]heptan-2-yl)-2-morpholinoethan-1-one]: the concentration for half-maximal inhibition (IC50) on human TLR7 is 409 nM; at human TLR8 (setting [1]) it was 4.1 nM; against human TLR9, above 50000 nM.

For `COc1cc(-c2[nH]c3cnc(N4CCC(NC(=O)CN(C)C)CC4)cc3c2C(C)C)cn2ncnc12` [Example 344], the IC50 turned out to be 1.7 nM on human TLR7, 3.5 nM at human TLR8 (setting [1]) and 257 nM on human TLR9 (setting [2]).

With `Cc1cc(-c2[nH]c3cnc(C4CCC(NC(C)C)CC4)c(F)c3c2C(C)C)cn2ncnc12` (stereo not drawn) [Example 230], the IC50 against human TLR7 was found to be 0.41 nM; on human TLR8 (setting [3]), 0.77 nM; at human TLR9 (setting [4]) it was 1700 nM.

Take `COc1cc(-c2[nH]c3cnc(N4CCC(N5CCC5)CC4)c(F)c3c2C(C)C)cn2ncnc12` [Example 253]: the IC50 at human TLR7 was determined as 0.97 nM; on human TLR8 (setting [1]), 0.77 nM; on human TLR9 (setting [2]) it was 2860 nM.

Turning to `Cc1c(-c2[nH]c3cnc(N4CCN(CC5CC5)C[C@H]4C)c(F)c3c2C(C)C)cn2ncnc2c1C` [Example 459], the IC50 against human TLR7 amounted to 1.6 nM; at human TLR8 (setting [3]), 0.54 nM; on human TLR9 (setting [4]), 13800 nM.

Regarding `CNC(=O)CN1CCC(c2cc3c(C(C)C)c(-c4cn5ncnc5c(C)c4C)[nH]c3cn2)CC1` [Example 26], the IC50 stood at 3.1 nM at human TLR7, 6.9 nM on human TLR8 (setting [1]) and 633 nM on human TLR9 (setting [2]).

Turning to `Cc1cc(-c2[nH]c3cnc(N4CCC(N(C)CC(N)=O)CC4)c(F)c3c2C(C)C)cn2ncnc12` [Example 158], the IC50 at human TLR7 was 1.4 nM; at human TLR8 (setting [1]), 2.1 nM; at human TLR9 (setting [2]), 17500 nM.

Take `Cc1c(-c2[nH]c3cnc(N4CCC(N5CC6(COC6)C5)CC4)c(F)c3c2C(C)C)cn2ncnc2c1C` [Example 111]: the IC50 at human TLR7 came out at 1 nM; on human TLR8 (setting [1]), 0.48 nM; at human TLR9 (setting [2]), 3000 nM.

With `COc1cc(-c2[nH]c3cnc(N4CCN(CC(N)=O)C[C@H]4C)c(F)c3c2C(C)C)cn2ncnc12` [Example 447], the results for the IC50 against human TLR7, at human TLR8 (setting [1]) and on human TLR9 (setting [2]) were 11 nM, 32 nM and above 50000 nM, respectively.

Take `Cc1c(-c2[nH]c3cnc(N4CCC(NCC5(C)COC5)CC4)c(C)c3c2C(C)C)cn2ncnc2c1C` [Example 54]: the IC50 at human TLR7 came to 0.9 nM; on human TLR8 (setting [1]), 0.3 nM; on human TLR9 (setting [2]), 935 nM.

In the case of `COc1cc(-c2[nH]c3cnc(N4CC5(CN(CC(C)C)C5)C4)c(F)c3c2C(C)C)cn2ncnc12` [Example 372], the figures for the IC50 against human TLR7, at human TLR8 (setting [1]) and on human TLR9 (setting [2]) were 7.9 nM, 440 nM and 5440 nM, respectively.

In the case of `COc1cc(-c2[nH]c3cnc(C4CCC(NC[C@@H](F)C(C)(C)O)CC4)c(C)c3c2C(C)C)cn2ncnc12` (stereo partly drawn) [Example 117], the IC50 against human TLR7 was found to be 28 nM; at human TLR8 (setting [1]), 41 nM; on human TLR9 (setting [2]), 868 nM.

Regarding `CCN(C)C1CCC(c2ncc3[nH]c(-c4cc(OC)c5ncnn5c4)c(C(C)C)c3c2C)CC1` (stereo not drawn) [Example 116], the IC50 against human TLR7 came out at 10 nM; at human TLR8 (setting [1]), 42 nM; at human TLR9 (setting [2]), 766 nM.

With `COc1cc(-c2[nH]c3cnc(N4CCN(CC(C)C)C[C@H]4C)c(F)c3c2C(C)C)cn2ncnc12` [Example 453], the IC50 at human TLR7 is 16 nM; on human TLR8 (setting [3]) it was 34 nM; on human TLR9 (setting [4]) it was above 50000 nM.

Consider `CNC1CCN(c2ncc3[nH]c(-c4cc(OC)c5ncnn5c4)c(C(C)C)c3c2F)CC1` [Example 191], for which the results for the IC50 at human TLR7, on human TLR8 (setting [1]) and at human TLR9 (setting [2]) were 0.91 nM, 1.1 nM and 3500 nM, respectively.

Turning to `COc1cc(-c2[nH]c3cnc(N4CCN(C)C[C@H]4C)c(F)c3c2C(C)C)cn2ncnc12` [Example 436], the IC50 against human TLR7 came to 1.8 nM; at human TLR8 (setting [1]), 5.1 nM; at human TLR9 (setting [2]), 10300 nM.

For the compound `Cc1c(-c2[nH]c3cnc(C4CCN(C(=O)CN(C)C)CC4)cc3c2C(C)C)cn2ncnc2c1C` [Example 36], the IC50 at human TLR7 is 19 nM; at human TLR8 (setting [1]), 48 nM; on human TLR9 (setting [2]) it was 208 nM.

In the case of `CCN(C)C1CCC(c2cc3c(C(C)C)c(-c4cc(OC)c5ncnn5c4)[nH]c3cn2)CC1` (stereo not drawn) [Example 331], the IC50 is 263 nM against human TLR7, 637 nM at human TLR8 (setting [1]) and 3300 nM on human TLR9 (setting [2]).

As for `COc1cc(-c2[nH]c3cnc(C4CCC(N(C)C)CC4)cc3c2C(C)C)cn2ncnc12` (stereo not drawn) [Example 340], the IC50 at human TLR7 amounted to 1270 nM; on human TLR8 (setting [1]) it was 708 nM; on human TLR9 (setting [2]) it was 11500 nM.

Take `Cc1cc(-c2[nH]c3cnc(N4CCC(NCC(C)(C)O)CC4)c(F)c3c2C(C)C)cn2ncnc12` [Example 258]: the IC50 turned out to be 0.77 nM on human TLR7, 0.35 nM on human TLR8 (setting [1]) and 6020 nM on human TLR9 (setting [2]).

Consider `CCN(C)C1CCC(c2ncc3[nH]c(-c4cn5ncnc5c(C)c4C)c(C(C)C)c3c2C)CC1` (stereo not drawn) [Example 143], for which the values for the IC50 against human TLR7, at human TLR8 (setting [1]) and on human TLR9 (setting [2]) were 33 nM, 33 nM and 683 nM, respectively.

Turning to `CCN(C)C1CCC(c2ncc3[nH]c(-c4cn5ncnc5c(C)c4C)c(C(C)C)c3c2F)CC1` (stereo not drawn) [Example 135], the IC50 worked out at 0.24 nM against human TLR7, 0.48 nM on human TLR8 (setting [1]) and 6500 nM at human TLR9 (setting [2]).

Consider `COc1cc(-c2[nH]c3cnc(C4CCN(C(C)C)CC4)c(C)c3c2C(C)C)cn2ncnc12` [Example 33], for which the IC50 came out at 1.4 nM against human TLR7, 6.9 nM on human TLR8 (setting [1]) and 134 nM at human TLR9 (setting [2]).

For `Cc1c(-c2[nH]c3cnc(C4CCC(NCC5(C)COC5)CC4)c(F)c3c2C(C)C)cn2ncnc2c1C` (stereo not drawn) [Example 172], the IC50 at human TLR7 turned out to be 4.4 nM; at human TLR8 (setting [1]) it was 0.75 nM; at human TLR9 (setting [2]) it was 2650 nM.

For `Cc1c(-c2[nH]c3cnc(N4CCN(CC(F)(F)F)C[C@H]4C)c(F)c3c2C(C)C)cn2ncnc2c1C` [Example 468], the values for the IC50 against human TLR7, at human TLR8 (setting [3]) and on human TLR9 (setting [4]) were 43 nM, 50 nM and above 50000 nM, respectively.

In the case of `COc1cc(-c2[nH]c3cnc(N4CCN(CC5CCOCC5)CC4)c(F)c3c2C(C)C)cn2ncnc12` [Example 383], the half-maximal inhibitory concentration (IC50) amounted to 2.7 nM against human TLR7, 0.31 nM at human TLR8 (setting [1]) and 5390 nM at human TLR9 (setting [2]).

In general, IC50 refers to the midpoint of a concentration-inhibition curve.

Source of the values: patent US11912703B2, “6-azaindole compounds” (BRISTOL-MYERS SQUIBB COMPANY, priority 2017, dated 2024).
